Experimental data as given in the kinase profiling compilation of Christmann-Franck et al. (2016).

Key:
Assay in all cases: radiometric filter-binding kinase assay, Kinase HotSpot
Conditions in all cases: compound 0.5 µM; ATP 10 µM
[1] = target: ACVR1 (human) (UniProt Q04771)
[2] = target: AURKA (human) (UniProt O14965)
[3] = target: BLK (human) (UniProt P51451)
[4] = target: BMX (human) (UniProt P51813)
[5] = target: BRSK2 (human) (UniProt Q8IWQ3)
[6] = target: CAMK2G (human) (UniProt Q13555)
[7] = target: CAMK4 (human) (UniProt Q16566)
[8] = target: CDK1 CCNB1 (human) (UniProt P06493+P14635)
[9] = target: CHEK2 (human) (UniProt O96017)
CHEK2 (human), sequence (O96017 whole entry, looked up): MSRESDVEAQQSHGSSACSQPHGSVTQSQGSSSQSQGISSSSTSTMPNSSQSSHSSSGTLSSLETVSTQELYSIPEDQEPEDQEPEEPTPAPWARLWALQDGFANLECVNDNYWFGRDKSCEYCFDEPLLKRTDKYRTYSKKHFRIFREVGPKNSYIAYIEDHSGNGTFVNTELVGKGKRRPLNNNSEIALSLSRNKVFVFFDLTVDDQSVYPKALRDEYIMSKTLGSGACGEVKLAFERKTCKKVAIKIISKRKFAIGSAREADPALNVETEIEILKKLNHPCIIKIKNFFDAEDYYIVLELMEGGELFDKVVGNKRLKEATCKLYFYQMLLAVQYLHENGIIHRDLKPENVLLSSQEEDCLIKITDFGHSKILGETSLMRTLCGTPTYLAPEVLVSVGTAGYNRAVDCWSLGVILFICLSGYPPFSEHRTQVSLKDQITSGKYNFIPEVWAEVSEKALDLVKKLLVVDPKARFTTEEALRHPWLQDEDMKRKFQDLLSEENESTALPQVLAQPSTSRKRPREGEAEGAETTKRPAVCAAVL

[10] = target: CLK4 (human) (UniProt Q9HAZ1)
[11] = target: DAPK2 (human) (UniProt Q9UIK4)
[12] = target: DAPK3 (human) (UniProt O43293)
[13] = target: DSTYK (human) (UniProt Q6XUX3)
DSTYK (human), sequence (Q6XUX3 whole entry, looked up): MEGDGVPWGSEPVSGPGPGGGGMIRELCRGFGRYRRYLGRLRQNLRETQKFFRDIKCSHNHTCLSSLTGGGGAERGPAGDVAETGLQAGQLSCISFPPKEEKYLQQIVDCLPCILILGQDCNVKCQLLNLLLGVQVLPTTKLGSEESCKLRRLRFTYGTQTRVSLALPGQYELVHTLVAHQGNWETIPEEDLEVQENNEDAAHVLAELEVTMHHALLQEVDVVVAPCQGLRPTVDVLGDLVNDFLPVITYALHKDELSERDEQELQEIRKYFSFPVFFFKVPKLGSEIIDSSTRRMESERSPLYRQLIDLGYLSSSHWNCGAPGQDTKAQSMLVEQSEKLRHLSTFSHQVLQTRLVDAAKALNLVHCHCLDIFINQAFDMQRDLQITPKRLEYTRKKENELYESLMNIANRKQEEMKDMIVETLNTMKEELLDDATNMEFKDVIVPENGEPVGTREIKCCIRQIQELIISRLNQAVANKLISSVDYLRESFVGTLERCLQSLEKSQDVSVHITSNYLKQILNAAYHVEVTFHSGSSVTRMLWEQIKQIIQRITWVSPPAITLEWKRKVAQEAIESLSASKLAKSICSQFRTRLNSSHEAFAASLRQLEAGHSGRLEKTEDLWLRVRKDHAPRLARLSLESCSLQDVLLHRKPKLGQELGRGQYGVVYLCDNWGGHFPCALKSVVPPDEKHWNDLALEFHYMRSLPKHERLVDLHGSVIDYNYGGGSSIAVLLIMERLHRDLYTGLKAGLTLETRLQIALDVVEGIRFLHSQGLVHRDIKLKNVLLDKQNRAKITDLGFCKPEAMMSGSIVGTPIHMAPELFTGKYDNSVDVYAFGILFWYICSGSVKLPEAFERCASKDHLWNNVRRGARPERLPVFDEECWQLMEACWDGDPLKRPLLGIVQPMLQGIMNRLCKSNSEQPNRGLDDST

[14] = target: DYRK4 (human) (UniProt Q9NR20)
[15] = target: EPHA2 (human) (UniProt P29317)
[16] = target: EPHA3 (human) (UniProt P29320)
[17] = target: EPHB1 (human) (UniProt P54762)
[18] = target: FGFR2 (human) (UniProt P21802)
FGFR2 (human), sequence (P21802 whole entry, looked up): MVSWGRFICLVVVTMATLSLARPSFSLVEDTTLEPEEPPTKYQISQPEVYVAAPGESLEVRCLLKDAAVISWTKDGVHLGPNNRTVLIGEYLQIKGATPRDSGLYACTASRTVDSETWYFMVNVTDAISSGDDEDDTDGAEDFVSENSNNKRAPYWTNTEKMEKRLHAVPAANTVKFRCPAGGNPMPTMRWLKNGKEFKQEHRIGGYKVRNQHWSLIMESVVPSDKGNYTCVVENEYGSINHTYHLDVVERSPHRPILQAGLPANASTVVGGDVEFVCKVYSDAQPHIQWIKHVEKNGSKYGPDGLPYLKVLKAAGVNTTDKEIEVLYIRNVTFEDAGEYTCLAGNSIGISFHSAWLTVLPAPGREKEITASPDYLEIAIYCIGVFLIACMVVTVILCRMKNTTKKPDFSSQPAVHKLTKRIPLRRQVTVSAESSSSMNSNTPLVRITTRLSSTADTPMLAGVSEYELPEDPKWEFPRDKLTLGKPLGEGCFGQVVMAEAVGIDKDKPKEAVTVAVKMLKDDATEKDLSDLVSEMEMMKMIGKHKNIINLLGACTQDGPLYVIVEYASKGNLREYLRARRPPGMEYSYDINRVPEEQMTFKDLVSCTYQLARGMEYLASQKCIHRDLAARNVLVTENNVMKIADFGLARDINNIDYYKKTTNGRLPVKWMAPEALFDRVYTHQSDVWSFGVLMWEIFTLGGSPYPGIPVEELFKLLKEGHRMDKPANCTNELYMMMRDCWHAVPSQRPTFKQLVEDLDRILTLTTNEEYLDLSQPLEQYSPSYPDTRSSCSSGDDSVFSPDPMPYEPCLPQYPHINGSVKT

[19] = target: FLT1 (human) (UniProt P17948)
FLT1 (human), sequence (P17948 whole entry, looked up): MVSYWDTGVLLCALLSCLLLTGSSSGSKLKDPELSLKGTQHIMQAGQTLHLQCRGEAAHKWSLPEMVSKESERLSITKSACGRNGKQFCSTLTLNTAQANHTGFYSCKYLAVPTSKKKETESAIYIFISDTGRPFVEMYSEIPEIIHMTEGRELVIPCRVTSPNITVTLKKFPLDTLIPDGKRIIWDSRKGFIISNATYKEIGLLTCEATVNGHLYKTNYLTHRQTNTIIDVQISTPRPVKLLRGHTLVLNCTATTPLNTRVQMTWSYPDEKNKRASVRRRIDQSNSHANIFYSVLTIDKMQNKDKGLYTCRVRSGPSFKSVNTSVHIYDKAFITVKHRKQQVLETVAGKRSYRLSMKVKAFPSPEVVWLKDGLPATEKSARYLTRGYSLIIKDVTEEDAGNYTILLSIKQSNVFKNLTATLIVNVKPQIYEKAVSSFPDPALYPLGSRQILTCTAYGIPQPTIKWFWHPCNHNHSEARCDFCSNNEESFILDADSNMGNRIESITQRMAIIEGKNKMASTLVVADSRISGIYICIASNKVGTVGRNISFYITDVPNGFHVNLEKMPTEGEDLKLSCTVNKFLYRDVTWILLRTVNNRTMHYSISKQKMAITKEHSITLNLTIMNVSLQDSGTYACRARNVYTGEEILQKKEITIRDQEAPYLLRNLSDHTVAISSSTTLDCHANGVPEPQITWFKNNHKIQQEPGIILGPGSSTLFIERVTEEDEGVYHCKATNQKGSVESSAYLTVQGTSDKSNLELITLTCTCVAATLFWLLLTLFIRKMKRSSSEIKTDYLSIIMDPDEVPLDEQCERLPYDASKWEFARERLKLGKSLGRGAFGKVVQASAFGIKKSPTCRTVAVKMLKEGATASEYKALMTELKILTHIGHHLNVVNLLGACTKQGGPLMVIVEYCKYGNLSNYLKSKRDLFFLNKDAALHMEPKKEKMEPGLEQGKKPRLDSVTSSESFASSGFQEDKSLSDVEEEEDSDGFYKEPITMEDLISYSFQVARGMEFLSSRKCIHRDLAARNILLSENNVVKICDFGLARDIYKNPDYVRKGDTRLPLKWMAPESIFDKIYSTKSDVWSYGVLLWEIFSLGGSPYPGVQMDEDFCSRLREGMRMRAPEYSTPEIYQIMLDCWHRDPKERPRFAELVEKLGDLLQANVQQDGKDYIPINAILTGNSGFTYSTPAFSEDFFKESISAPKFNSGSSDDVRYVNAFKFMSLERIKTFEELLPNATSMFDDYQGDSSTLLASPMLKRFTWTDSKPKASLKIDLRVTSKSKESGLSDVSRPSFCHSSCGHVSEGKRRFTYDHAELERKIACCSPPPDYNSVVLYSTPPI

[20] = target: FLT3 (human) (UniProt P36888)
[21] = target: GRK5 (human) (UniProt P34947)
[22] = target: JAK3 JH1 JH2 (human) (UniProt P52333)
[23] = target: LCK (human) (UniProt P06239)
[24] = target: MAP2K2 (human) (UniProt P36507)
MAP2K2 (human), sequence (P36507 whole entry, looked up): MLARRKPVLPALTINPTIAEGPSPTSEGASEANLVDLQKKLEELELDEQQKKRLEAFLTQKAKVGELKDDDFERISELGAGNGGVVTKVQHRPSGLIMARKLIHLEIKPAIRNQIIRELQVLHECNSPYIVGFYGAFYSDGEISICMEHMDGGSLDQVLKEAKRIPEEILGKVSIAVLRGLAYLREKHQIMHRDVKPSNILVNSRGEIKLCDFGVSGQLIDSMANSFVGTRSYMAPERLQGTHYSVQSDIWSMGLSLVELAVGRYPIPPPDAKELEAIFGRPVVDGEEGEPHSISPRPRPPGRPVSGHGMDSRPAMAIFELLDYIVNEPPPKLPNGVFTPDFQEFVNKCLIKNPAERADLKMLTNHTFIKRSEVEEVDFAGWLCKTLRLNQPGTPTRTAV

[25] = target: MAP4K5 (human) (UniProt Q9Y4K4)
[26] = target: MAPK9 (human) (UniProt P45984)
MAPK9 (human), sequence (P45984 whole entry, looked up): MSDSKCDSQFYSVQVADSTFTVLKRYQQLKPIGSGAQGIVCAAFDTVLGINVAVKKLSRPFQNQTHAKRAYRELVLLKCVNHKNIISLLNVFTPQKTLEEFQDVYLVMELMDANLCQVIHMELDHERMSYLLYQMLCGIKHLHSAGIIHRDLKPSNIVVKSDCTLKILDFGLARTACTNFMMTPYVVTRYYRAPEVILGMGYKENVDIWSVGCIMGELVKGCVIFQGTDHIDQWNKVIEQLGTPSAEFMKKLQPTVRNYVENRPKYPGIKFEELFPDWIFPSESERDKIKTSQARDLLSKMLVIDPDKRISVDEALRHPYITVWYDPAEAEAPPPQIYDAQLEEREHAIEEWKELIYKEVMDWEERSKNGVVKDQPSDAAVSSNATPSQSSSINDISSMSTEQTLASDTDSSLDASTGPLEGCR

[27] = target: MARK3 (human) (UniProt P27448)
[28] = target: MATK (human) (UniProt P42679)
[29] = target: MERTK (human) (UniProt Q12866)
[30] = target: NLK (human) (UniProt Q9UBE8)
[31] = target: NTRK2 (human) (UniProt Q16620)
[32] = target: PAK2 (human) (UniProt Q13177)
[33] = target: PAK3 (human) (UniProt O75914)
[34] = target: PLK2 (human) (UniProt Q9NYY3)
[35] = target: PRKCD (human) (UniProt Q05655)
[36] = target: PRKCG (human) (UniProt P05129)
[37] = target: PRKG2 (human) (UniProt Q13237)
[38] = target: ROCK2 (human) (UniProt O75116)
[39] = target: STK33 (human) (UniProt Q9BYT3)
[40] = target: TEC (human) (UniProt P42680)
[41] = target: ULK1 (human) (UniProt O75385)
[42] = target: ULK2 (human) (UniProt Q8IYT8)

BLK (human), sequence (P51451 whole entry, looked up): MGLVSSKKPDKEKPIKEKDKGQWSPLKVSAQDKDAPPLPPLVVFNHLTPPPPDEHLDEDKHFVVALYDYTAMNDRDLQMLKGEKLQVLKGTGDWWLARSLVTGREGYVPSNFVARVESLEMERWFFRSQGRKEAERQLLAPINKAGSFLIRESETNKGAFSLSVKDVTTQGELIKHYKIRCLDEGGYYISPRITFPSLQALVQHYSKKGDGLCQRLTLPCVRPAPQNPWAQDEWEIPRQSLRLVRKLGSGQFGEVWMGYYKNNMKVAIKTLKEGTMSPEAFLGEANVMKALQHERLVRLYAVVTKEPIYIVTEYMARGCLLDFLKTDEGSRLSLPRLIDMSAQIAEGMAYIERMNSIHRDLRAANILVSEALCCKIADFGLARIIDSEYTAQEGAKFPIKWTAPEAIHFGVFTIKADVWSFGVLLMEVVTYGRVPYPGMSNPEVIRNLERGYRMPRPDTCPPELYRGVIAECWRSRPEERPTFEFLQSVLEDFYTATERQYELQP

SMILES: CC[n+]1c(/C=C/N(C)c2ccccc2)n(-c2ccccc2)c2ccc(-c3nc4ccccc4s3)cc21
- residual activity [1]: 103%
- residual activity [2]: 88.1%
- residual activity [3]: 99.1%
- residual activity [4]: 108%
- residual activity [5]: 95.7%
- residual activity [6]: 103%
- residual activity [7]: 93.2%
- residual activity [8]: 105%
- residual activity [9]: 105%
- residual activity [10]: 95.5%
- residual activity [11]: 94.3%
- residual activity [12]: 95.4%
- residual activity [13]: 103%
- residual activity [14]: 107%
- residual activity [15]: 100%
- residual activity [16]: 99.4%
- residual activity [17]: 104%
- residual activity [18]: 100%
- residual activity [19]: 94.1%
- residual activity [20]: 98.6%
- residual activity [21]: 109%
- residual activity [22]: 106%
- residual activity [23]: 89.9%
- residual activity [24]: 88.5%
- residual activity [25]: 91.7%
- residual activity [26]: 94.6%
- residual activity [27]: 98.8%
- residual activity [28]: 96.4%
- residual activity [29]: 96.5%
- residual activity [30]: 105%
- residual activity [31]: 97.8%
- residual activity [32]: 97.3%
- residual activity [33]: 109%
- residual activity [34]: 93.1%
- residual activity [35]: 93.3%
- residual activity [36]: 99.4%
- residual activity [37]: 92.4%
- residual activity [38]: 99.1%
- residual activity [39]: 89.4%
- residual activity [40]: 161%
- residual activity [41]: 90.9%
- residual activity [42]: 109%

SMILES: CCCC(=O)Oc1ccc2[nH]c(C(=O)c3cc4ccccc4[nH]3)cc2c1
- residual activity [1]: 100%
- residual activity [2]: 94.6%
- residual activity [3]: 102%
- residual activity [4]: 97.4%
- residual activity [5]: 98.8%
- residual activity [6]: 99.4%
- residual activity [7]: 111%
- residual activity [8]: 106%
- residual activity [9]: 99%
- residual activity [10]: 90.2%
- residual activity [11]: 88.4%
- residual activity [12]: 88.5%
- residual activity [13]: 94.9%
- residual activity [14]: 86%
- residual activity [15]: 99%
- residual activity [16]: 96.8%
- residual activity [17]: 92.1%
- residual activity [18]: 100%
- residual activity [19]: 89.7%
- residual activity [20]: 79.9%
- residual activity [21]: 100%
- residual activity [22]: 95.6%
- residual activity [23]: 94%
- residual activity [24]: 98.7%
- residual activity [25]: 88%
- residual activity [26]: 76%
- residual activity [27]: 92.1%
- residual activity [28]: 93.4%
- residual activity [29]: 96.7%
- residual activity [30]: 106%
- residual activity [31]: 89.8%
- residual activity [32]: 102%
- residual activity [33]: 102%
- residual activity [34]: 101%
- residual activity [35]: 88.8%
- residual activity [36]: 99%
- residual activity [37]: 97.6%
- residual activity [38]: 103%
- residual activity [39]: 92.9%
- residual activity [40]: 97.8%
- residual activity [41]: 103%
- residual activity [42]: 98.3%

SMILES: Nc1ncnc2c1c(-c1ccc(Oc3ccccc3)cc1)cn2C1CCCC1
- residual activity [1]: 95.4%
- residual activity [2]: 76.5%
- residual activity [3]: 1.52%
- residual activity [4]: 10.1%
- residual activity [5]: 98.3%
- residual activity [6]: 95%
- residual activity [7]: 101%
- residual activity [8]: 110%
- residual activity [9]: 76.6%
- residual activity [10]: 98%
- residual activity [11]: 87.6%
- residual activity [12]: 114%
- residual activity [13]: 100%
- residual activity [14]: 91.6%
- residual activity [15]: 100%
- residual activity [16]: 96.3%
- residual activity [17]: 94.5%
- residual activity [18]: 78%
- residual activity [19]: 76.9%
- residual activity [20]: 4.48%
- residual activity [21]: 102%
- residual activity [22]: 105%
- residual activity [23]: 1.12%
- residual activity [24]: 103%
- residual activity [25]: 80.2%
- residual activity [26]: 100%
- residual activity [27]: 89.8%
- residual activity [28]: 90%
- residual activity [29]: 87.4%
- residual activity [30]: 96.9%
- residual activity [31]: 87%
- residual activity [32]: 106%
- residual activity [33]: 98.4%
- residual activity [34]: 92.5%
- residual activity [35]: 99.6%
- residual activity [36]: 96.1%
- residual activity [37]: 114%
- residual activity [38]: 90.5%
- residual activity [39]: 92.3%
- residual activity [40]: 8.33%
- residual activity [41]: 106%
- residual activity [42]: 125%

SMILES: COc1ccc(COc2ccc(Cc3cnc(N)nc3N)cc2OC)cc1
- residual activity [1]: 100%
- residual activity [2]: 105%
- residual activity [3]: 98.6%
- residual activity [4]: 93.4%
- residual activity [5]: 96.8%
- residual activity [6]: 94.4%
- residual activity [7]: 94.7%
- residual activity [8]: 91.3%
- residual activity [9]: 107%
- residual activity [10]: 86.5%
- residual activity [11]: 95.3%
- residual activity [12]: 104%
- residual activity [13]: 95%
- residual activity [14]: 101%
- residual activity [15]: 107%
- residual activity [16]: 109%
- residual activity [17]: 103%
- residual activity [18]: 102%
- residual activity [19]: 99.7%
- residual activity [20]: 103%
- residual activity [21]: 109%
- residual activity [22]: 95.9%
- residual activity [23]: 96.3%
- residual activity [24]: 101%
- residual activity [25]: 97.4%
- residual activity [26]: 106%
- residual activity [27]: 103%
- residual activity [28]: 94.8%
- residual activity [29]: 90.3%
- residual activity [30]: 105%
- residual activity [31]: 31.2%
- residual activity [32]: 95.3%
- residual activity [33]: 102%
- residual activity [34]: 116%
- residual activity [35]: 87.8%
- residual activity [36]: 102%
- residual activity [37]: 104%
- residual activity [38]: 84.1%
- residual activity [39]: 96.4%
- residual activity [40]: 114%
- residual activity [41]: 99.7%
- residual activity [42]: 105%
